The target in assay [1] is T1, ERα (Homo sapiens, UniProt P03372).
T1 sequence (P03372 1-595): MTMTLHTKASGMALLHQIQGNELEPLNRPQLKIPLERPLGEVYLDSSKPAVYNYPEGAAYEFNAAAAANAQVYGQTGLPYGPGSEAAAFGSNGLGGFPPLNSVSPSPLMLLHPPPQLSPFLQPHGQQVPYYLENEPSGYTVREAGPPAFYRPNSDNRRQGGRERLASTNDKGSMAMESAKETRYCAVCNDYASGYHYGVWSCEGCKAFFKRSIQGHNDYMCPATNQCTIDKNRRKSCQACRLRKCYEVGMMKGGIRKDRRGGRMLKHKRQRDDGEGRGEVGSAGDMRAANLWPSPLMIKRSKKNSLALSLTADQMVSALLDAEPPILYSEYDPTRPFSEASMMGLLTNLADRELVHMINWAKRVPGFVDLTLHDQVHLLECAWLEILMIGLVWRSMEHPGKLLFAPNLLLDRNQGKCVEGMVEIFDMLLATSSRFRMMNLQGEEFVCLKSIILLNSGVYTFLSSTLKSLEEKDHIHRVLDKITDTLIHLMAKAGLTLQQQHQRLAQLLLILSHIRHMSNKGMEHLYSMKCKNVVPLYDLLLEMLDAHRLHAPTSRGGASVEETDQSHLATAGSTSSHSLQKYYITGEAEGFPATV
Briefly: Luciferase reporter gene assay (transactivation), U2OS cells transfected with pSG5-ERα. In kind it is cell-based. To be noted: inhibition of E2-induced (0.03 nM) transactivation.

Assay [2] concerns the target T2, ERβ (Homo sapiens, UniProt Q92731). Briefly: Luciferase reporter gene assay (transactivation), U2OS cells transfected with pSG5-ERβ. In kind it is cell-based. The settings on record: inhibition of E2-induced (0.3 nM) transactivation. In general terms: In a reporter assay the amount or activity of a reporter protein is the signal.
Target sequence in this assay (Q92731 whole entry): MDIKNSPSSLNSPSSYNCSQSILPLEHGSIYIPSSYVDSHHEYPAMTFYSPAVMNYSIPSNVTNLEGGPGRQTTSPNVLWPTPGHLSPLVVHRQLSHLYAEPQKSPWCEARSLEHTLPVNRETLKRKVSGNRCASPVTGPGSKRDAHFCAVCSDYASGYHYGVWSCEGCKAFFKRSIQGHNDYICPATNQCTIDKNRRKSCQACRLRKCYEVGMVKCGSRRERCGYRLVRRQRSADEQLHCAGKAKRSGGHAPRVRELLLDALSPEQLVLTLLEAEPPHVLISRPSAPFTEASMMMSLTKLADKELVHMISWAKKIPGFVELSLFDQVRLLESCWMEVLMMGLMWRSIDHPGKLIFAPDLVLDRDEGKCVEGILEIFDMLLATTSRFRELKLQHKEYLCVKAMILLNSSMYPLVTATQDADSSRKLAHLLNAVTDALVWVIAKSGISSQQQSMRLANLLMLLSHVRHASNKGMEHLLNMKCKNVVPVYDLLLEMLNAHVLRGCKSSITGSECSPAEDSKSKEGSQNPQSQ
For assay [3], the target named is T1, ERα. Description: In-Cell Western immunoassay, ERα levels in MCF-7 cells. In kind it is cell-based. To be noted: for Emax at 1 µM: MCF7, read-out: % efficacy [1 μM], downregulation of ERα compared to fulvestrant (100%), MCF-7, 1 μM; for % ERα remaining [1 μM]: MCF-7 cells, 24 h, compared to the solvent control (DMSO).
Description: Degradation was evaluated with the CellTagTM 700 In-Cell Western kit (LI-COR, Lincoln) according to the manufacturer’s protocol. MCF-7 cells were treated, and calculation was performed as previously described.[24]
The target in assay [4] is T3, ERα (Homo sapiens, UniProt P03372).
T3 sequence (P03372 311-547 limits assumed): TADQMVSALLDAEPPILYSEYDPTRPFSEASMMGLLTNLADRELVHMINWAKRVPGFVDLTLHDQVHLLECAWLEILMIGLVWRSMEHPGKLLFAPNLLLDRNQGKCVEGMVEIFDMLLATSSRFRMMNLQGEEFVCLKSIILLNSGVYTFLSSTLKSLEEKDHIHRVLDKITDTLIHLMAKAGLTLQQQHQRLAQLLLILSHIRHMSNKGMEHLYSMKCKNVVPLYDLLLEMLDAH
To be noted: for IC50: read-out: TR-FRET ERα IC50, displacement of fluorescent-labeled E2 from the LBD of ERα; for RBA ERα: relative binding affinity compared to E2 (100%).
Description: (§1) LanthaScreen TR-FRET ER alpha/beta competitive binding assays (Invitrogen, Carlsbad) were used to investigate the binding affinity to the isolated receptors according to the manufacturer′s protocols. Measurement was performed with an Enspire multimode plate reader (PerkinElmer Life Sciences, Waltham). Calculations were performed with Excel (Microsoft, Redmond) and GraphPad Prism (GraphPad Software, San Diego).

Assay [5] deals with T2, ERβ. The settings on record: for IC50: read-out: TR-FRET ERβ IC50, displacement of fluorescent-labeled E2 from the LBD of ERβ; for RBA ERβ: relative binding affinity compared to E2 (100%). In general terms: In TR-FRET formats the signal depends on donor and acceptor labels being close together.
Target sequence in this assay (Q92731 264-498 limits assumed): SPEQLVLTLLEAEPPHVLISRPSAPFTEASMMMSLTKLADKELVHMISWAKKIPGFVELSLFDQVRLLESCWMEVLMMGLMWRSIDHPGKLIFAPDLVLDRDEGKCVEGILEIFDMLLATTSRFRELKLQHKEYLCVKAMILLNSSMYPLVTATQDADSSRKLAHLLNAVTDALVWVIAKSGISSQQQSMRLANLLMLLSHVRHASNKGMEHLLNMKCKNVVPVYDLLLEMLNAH
Description: as §1
Assay [6] has as its target T3, ERα. Description: TR-FRET coactivator (PGC-1 peptide) recruitment assay, ERα LBD. To be noted: E2 4 nM, read-out: inhibition of coactivator recruitment IC50, ERα. In kind it is biochemical.
Description: drug concentrations: 5 nM to 3 μM) after an incubation time of 10 or 30 min.
Coactivator recruitment was tested using the LanthaScreen® TR-FRET ERα coactivator assay. The binding
of the fluorescein-labeled PGC1a coactivator peptide to the ERα LBD protein labeled with terbium was
Assay [7] deals with T2, ERβ. The settings on record: read-out: inhibition of coactivator recruitment IC50, ERβ; E2 34 nM, incubation time 30 min.
Target sequence in this assay (Q92731 whole entry): as the sequence (Q92731 whole entry) above
The test system of a further assay is MCF-7TamR cells. Description: Crystal violet assay, MCF-7TamR cells. The class given is cell-based.
The test system of another assay is MCF-7 cells. Description: Crystal violet assay, MCF-7 cells. The class given is cell-based. To be noted: for time to cytocidal effects, MCF-7: time-dependent experiment.
The test system of a further assay is MDA-MB-231 cells. Briefly: Crystal violet assay, MDA-MB-231 cells. In kind it is cell-based.

Molecules are shown by their SMILES. Like-named read-outs stand apart in the source and are kept apart here.

By IC50 is commonly meant the concentration at which inhibition is half-maximal. Regarding `CCC(=C(c1ccc(O)cc1)c1ccc(/C=C/C(=O)NCCCNC(=O)c2ccc(N3CCN(C(=O)CCCCCCCn4c(=S)[nH]c5ccccc5c4=O)CC3)cc2)cc1)c1ccccc1` (mixture of isomers) [Compound 18], the IC50 against ERα [1] amounted to 914 ± 50 nM; against ERβ [2], 157 ± 22 nM; on ERα [4] it was 4.23 ± 1.12 nM; at ERβ [5], 6.81 ± 1.86 nM. In addition, the Emax at 1 µM on ERα [3] was found to be 64%. The “RBA ERα” value at ERα [4] is given as 7.8%. On ERβ [5], the “RBA ERβ” value is 10.9%.

`CCC(=C(c1ccc(O)cc1)c1ccc(/C=C/C(=O)NCCNC(=O)CCc2nc3cc(OC)ccc3[nH]2)cc1)c1ccccc1` (mixture of isomers) [Compound 31, (E)-3-[4-((E/Z)-1-(4-Hydroxyphenyl)-2-phenylbut-1-enyl)phenyl]-N-[2-(3-(5-methoxy-1H-benzo[d]imidazol-2-yl)propanamido)ethyl]acrylamide]: the values for the IC50 on ERβ [2] and at ERβ [5] were 6.7 ± 2.7 nM and 4.88 ± 2.65 nM, respectively. For the same compound, at ERα [3], the “% ERα remaining [1 μM]” value is on record as 113.8 ± 4.3%. Also, the “RBA ERα” value at ERα [4] was found to be 12%. In addition, the “RBA ERβ” value at ERβ [5] came to 15.2%.

Consider `CCC(=C(c1ccc(O)cc1)c1ccc(/C=C/C(=O)NCCCNC(=O)CCc2nc3ccc(OC)cc3[nH]2)cc1)c1ccccc1` (mixture of isomers) [Compound 32, (E)-3-[4-((E/Z)-1-(4-Hydroxyphenyl)-2-phenylbut-1-enyl)phenyl]-N-[3-(3-(5-methoxy-1H-benzo[d]imidazol-2-yl)propanamido)propyl]acrylamide], for which the IC50 against ERα [1] turned out to be 21.5 ± 10.7 nM; against ERβ [2] it was 26.9 ± 5.7 nM; on ERα [4], 4.11 ± 1.88 nM; at ERβ [5], 3.01 ± 4 nM. In addition, the “% ERα remaining [1 μM]” value on ERα [3] amounted to 120.3 ± 31.6%. At ERα [4], the “RBA ERα” value was determined as 8%. Besides, the “RBA ERβ” value at ERβ [5] worked out at 24.7%.

`CCC(=C(c1ccc(O)cc1)c1ccc(/C=C/C(=O)NCCCCNC(=O)CCc2nc3cc(OC)ccc3[nH]2)cc1)c1ccccc1` (mixture of isomers) [Compound 34, (E)-3-[4-((E/Z)-1-(4-Hydroxyphenyl)-2-phenylbut-1-enyl)phenyl]-N-[4-(3-(5-methoxy-1H-benzo[d]imidazol-2-yl)propanamido)butyl]acrylamide] displayed an IC50 against ERα [1] of 34.5 ± 3.5 nM. The “% ERα remaining [1 μM]” value at ERα [3] is 132.9 ± 14.1%. On ERα [4], the IC50 was 2.22 ± 0.76 nM and the “RBA ERα” value amounted to 14.9%.

`CCC(=C(c1ccc(O)cc1)c1ccc(/C=C/C(=O)NCCCCCNC(=O)CCc2nc3ccc(OC)cc3[nH]2)cc1)c1ccccc1` (mixture of isomers) [Compound 36, (E)-3-[4-((E/Z)-1-(4-Hydroxyphenyl)-2-phenylbut-1-enyl)phenyl]-N-[5-(3-(5-methoxy-1H-benzo[d]imidazol-2-yl)propanamido)pentyl]acrylamide]: the IC50 at ERα [6] (incubation time 10 min) was determined as 36.3 nM; at ERα [6] (incubation time 30 min) it was 153 nM; at ERα [1], 9.2 ± 3.2 nM; at ERβ [2] it was 8.9 ± 4 nM; on ERα [4], 1.56 ± 0.63 nM; at ERβ [5], 7.84 ± 0.25 nM. In addition, the IC50 at ERβ [7] amounted to 154 nM. The “% ERα remaining [1 μM]” value on ERα [3] was 130.0 ± 15.1%. Besides, the “RBA ERα” value at ERα [4] amounted to 21.1%. Besides, on ERβ [5], the “RBA ERβ” value worked out at 9.5%.

As to `CCC(=C(c1ccc(O)cc1)c1ccc(/C=C/C(=O)NCCCCCCNC(=O)CCc2nc3cc(OC)ccc3[nH]2)cc1)c1ccccc1` (mixture of isomers) [Compound 38, (E)-3-[4-((E/Z)-1-(4-Hydroxyphenyl)-2-phenylbut-1-enyl)phenyl]-N-[6-(3-(5-methoxy-1H-benzo[d]imidazol-2-yl)propanamido)hexyl]acrylamide], the half-maximal inhibitory concentration (IC50) at ERα [1] came to 9.4 ± 2.7 nM; against ERβ [2], 9 ± 3.3 nM; at ERα [4], 2.61 ± 2.25 nM; at ERβ [5], 5.22 ± 0.65 nM. Besides, the “% ERα remaining [1 μM]” value at ERα [3] came to 101.8 ± 1.9%. The “T/Ccorr MCF-7TamR” value in the assay with MCF-7TamR cells is “about 40%”. The “RBA ERα” value at ERα [4] is 12.6%. Also, on ERβ [5], the “RBA ERβ” value is reported as 14.3%.

Take `CCC(=C(c1ccc(O)cc1)c1ccc(/C=C/C(=O)NCCNC(=O)CCc2nc3cc(O)ccc3[nH]2)cc1)c1ccccc1` (mixture of isomers) [Compound 39, (E)-N-[2-(3-(5-Hydroxy-1H-benzo[d]imidazol-2-yl)propanamido)ethyl]-3-[4-((E/Z)-1-(4-hydroxyphenyl)-2-phenylbut-1-enyl)phenyl]acrylamide]: the IC50 on ERα [1] was found to be 26 ± 6.6 nM. Besides, at ERα [3], the Emax at 1 µM amounted to 1% and the “% ERα remaining [1 μM]” value turned out to be 99.2 ± 3.5%. Moreover, at ERα [4], the IC50 turned out to be 1.45 ± 0.37 nM and the “RBA ERα” value is reported as 22.8%.

With `CCC(=C(c1ccc(O)cc1)c1ccc(/C=C/C(=O)NCCCNC(=O)CCc2nc3cc(O)ccc3[nH]2)cc1)c1ccccc1` (mixture of isomers) [Compound 40, (E)-N-[3-(3-(5-Hydroxy-1H-benzo[d]imidazol-2-yl)propanamido)propyl]-3-[4-((E/Z)-1-(4-hydroxyphenyl)-2-phenylbut-1-enyl)phenyl]acrylamide], the IC50 at ERβ [2] worked out at 18.7 ± 8.3 nM. At ERβ [5], the IC50 is 3.78 ± 1.54 nM and the “RBA ERβ” value amounted to 19.7%.

For `CCC(=C(c1ccc(O)cc1)c1ccc(/C=C/C(=O)NCCCCNC(=O)CCc2nc3cc(O)ccc3[nH]2)cc1)c1ccccc1` (mixture of isomers) [Compound 41, (E)-N-[4-(3-(5-Hydroxy-1H-benzo[d]imidazol-2-yl)propanamido)butyl]-3-[4-((E/Z)-1-(4-hydroxyphenyl)-2-phenylbut-1-enyl)phenyl]acrylamide], the results for the IC50 against ERβ [2] and at ERβ [5] were 15.9 ± 1.7 nM and 2.84 ± 1.31 nM, respectively. In addition, the “RBA ERβ” value at ERβ [5] is reported as 26.2%.

In the case of `CCC(=C(c1ccc(O)cc1)c1ccc(/C=C/C(=O)NCCCCCNC(=O)CCc2nc3cc(O)ccc3[nH]2)cc1)c1ccccc1` (mixture of isomers) [Compound 42, (E)-N-[5-(3-(5-Hydroxy-1H-benzo[d]imidazol-2-yl)propanamido)pentyl]-3-[4-((E/Z)-1-(4-hydroxyphenyl)-2-phenylbut-1-enyl)phenyl]acrylamide], the IC50 at ERα [6] (incubation time 10 min) came out at 23.3 nM; at ERα [1], 30.9 ± 8.7 nM; against ERβ [2], 46.5 ± 20.7 nM; on ERα [4], 1.28 ± 0.58 nM; on ERβ [5], 3.81 ± 2.35 nM; on ERβ [7], 64 nM. In addition, at ERα [3], the Emax at 1 µM stood at 8%. The “% ERα remaining [1 μM]” value on ERα [3] is 92.0 ± 5.5%. For the same compound, the “RBA ERα” value on ERα [4] came to 25.7%. The “RBA ERβ” value at ERβ [5] worked out at 19.5%.

Consider `CCC(=C(c1ccc(O)cc1)c1ccc(/C=C/C(=O)NCCCCCCNC(=O)CCc2nc3cc(O)ccc3[nH]2)cc1)c1ccccc1` (mixture of isomers) [Compound 43, (E)-N-[6-(3-(5-Hydroxy-1H-benzo[d]imidazol-2-yl)propanamido)hexyl]-3-[4-((E/Z)-1-(4-hydroxyphenyl)-2-phenylbut-1-enyl)phenyl]acrylamide], for which the results for the IC50 against ERβ [2] and on ERβ [5] were 16.1 ± 7 nM and 7.8 ± 2.3 nM, respectively. Besides, the “RBA ERβ” value at ERβ [5] was 9.5%.

As for `CC/C(=C(\c1ccc(O)cc1)c1ccc(OCCN(C)C)cc1)c1ccccc1` [4-OHT, (Z)-4-hydroxytamoxifen], the “T/Ccorr MCF-7” value with MCF-7 cells (10 μM, 120 h) is listed as −55%. The entries for the “time to cytocidal effects, MCF-7” value with MCF-7 cells (10 μM) and with MCF-7 cells (20 μM) were 48 h and 24 h, respectively. Further, the “T/Ccorr MCF-7TamR” value in the assay on MCF-7TamR cells (10 μM, 120 h) is −57%. For the same compound, the “T/Ccorr MDA-MB-231” value in the assay with MDA-MB-231 cells (10 μM, 120 h) came out at 10%. Also, the “time to cytocidal effects, MDA-MB-231” value with MDA-MB-231 cells (20 μM, time-dependent experiment) is listed as 24 h.

Turning to `C[C@]12CC[C@@H]3c4ccc(O)cc4C[C@@H](CCCCCCCCC[S+]([O-])CCCC(F)(F)C(F)(F)F)[C@H]3[C@@H]1CC[C@@H]2O` (stereo partly drawn) [fulvestrant, reference compound], the “RBA ERβ” value on ERβ [5] is reported as 10.0%.

For the origin of these results see paper PMC8279417 (Journal of Medicinal Chemistry, 2021).
